Test results reported in ChEMBL document CHEMBL1201862, “PubChem BioAssay data set” (2004).
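The compound was tested at five concentrations on cells cultured in 96-well plates, with a 48-hour exposure period. Abbreviation: GI50, concentration required for 50% inhibition of growth.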 The source made the active and inactive calls. No stated cut-off is given here; in the data, active = GI50 up to about 1.1 µM and inactive = higher.

Experiments:
Experiment in all cases: NCI anticancer screen, dose series, 48 h
[1] = tested on: HL-60
[2] = tested on: ACHN
[3] = tested on: RXF 393
[4] = tested on: CCRF-CEM
[5] = tested on: HCT-116
[6] = tested on: SN12C
[7] = tested on: MOLT-4
[8] = tested on: SK-MEL-5
[9] = tested on: K562
[10] = tested on: CAKI-1
[11] = tested on: NCI-H226
[12] = tested on: M14
[13] = tested on: U-251
[14] = tested on: UACC-62
[15] = tested on: SF-295
[16] = tested on: HOP-92
[17] = tested on: SR
[18] = tested on: OVCAR-4
[19] = tested on: MDA-N

Row | SMILES | GI50 [1] | GI50 [2] | GI50 [3] | GI50 [4] | GI50 [5] | GI50 [6] | GI50 [7] | GI50 [8] | GI50 [9] | GI50 [10] | GI50 [11] | GI50 [12] | GI50 [13] | GI50 [14] | GI50 [15] | GI50 [16] | GI50 [17] | GI50 [18] | GI50 [19]
1 | COc1ccc(C(=O)CC2=Nc3nnc(CCCCCCCc4nnc5n4C(=O)C(CC(=O)c4ccc(OC)cc4)=N5)n3C2=O)cc1 | > 100 µM (inactive) | > 100 µM (inactive) | > 100 µM (inactive) | > 100 µM (inactive) | > 100 µM (inactive) | > 100 µM (inactive) | > 100 µM (inactive) | > 100 µM (inactive) | > 100 µM (inactive) | > 100 µM (inactive) | > 100 µM (inactive) | > 100 µM (inactive) | > 100 µM (inactive) | > 100 µM (inactive) | > 100 µM (inactive) | > 100 µM (inactive) | > 100 µM (inactive) |  | 
2 | N#CC(C(=O)CCCC(=O)Nc1ccc(Cl)cc1Cl)c1ccccc1 (configuration not stated) | > 100 µM (inactive) | > 100 µM (inactive) | > 100 µM (inactive) | > 100 µM (inactive) | > 100 µM (inactive) | > 100 µM (inactive) | > 100 µM (inactive) | > 100 µM (inactive) | > 100 µM (inactive) | > 100 µM (inactive) | > 100 µM (inactive) | > 100 µM (inactive) | > 100 µM (inactive) | > 100 µM (inactive) | > 100 µM (inactive) | > 100 µM (inactive) | > 100 µM (inactive) | > 100 µM (inactive) | 
3 | COc1cc2oc(=O)ccc2cc1C1OC(=O)C2OC21C (configuration not stated) | > 100 µM (inactive) | > 100 µM (inactive) | > 100 µM (inactive) | > 100 µM (inactive) | > 100 µM (inactive) | > 100 µM (inactive) | > 100 µM (inactive) | > 100 µM (inactive) | > 100 µM (inactive) | > 100 µM (inactive) | > 100 µM (inactive) | > 100 µM (inactive) | > 100 µM (inactive) | > 100 µM (inactive) | > 100 µM (inactive) | > 100 µM (inactive) | > 100 µM (inactive) | > 100 µM (inactive) | > 100 µM (inactive)
4 | OCC(CCc1ccccc1I)C1=CCC2(CC1)OCCO2 (configuration not stated) | 3.53 µM (inactive) | 28.7 µM (inactive) | 14.9 µM (inactive) | 13.5 µM (inactive) |  |  | 61.2 µM (inactive) | 14.6 µM (inactive) | > 100 µM (inactive) | 24.7 µM (inactive) | 28.4 µM (inactive) | 20 µM (inactive) | 19.7 µM (inactive) | 16.4 µM (inactive) | 16.4 µM (inactive) | 12.4 µM (inactive) | 45.6 µM (inactive) | 18.9 µM (inactive) | 18.2 µM (inactive)
5 | Cc1cc(C)n(C(C)(C(=O)Cc2ccccc2)n2nc(C)cc2C)n1 | > 100 µM (inactive) | > 100 µM (inactive) | > 100 µM (inactive) |  | > 100 µM (inactive) | > 100 µM (inactive) | > 100 µM (inactive) | > 100 µM (inactive) | > 100 µM (inactive) | > 100 µM (inactive) | > 100 µM (inactive) | > 100 µM (inactive) | > 100 µM (inactive) | > 100 µM (inactive) | > 100 µM (inactive) | > 100 µM (inactive) | > 100 µM (inactive) | > 100 µM (inactive) | > 100 µM (inactive)
6 | O=c1[nH]n(Cc2ccccc2Cl)c2ccc([N+](=O)[O-])cc12 | 31.6 µM (inactive) | 33.3 µM (inactive) | 23.3 µM (inactive) | 45.2 µM (inactive) | 41.1 µM (inactive) | 54 µM (inactive) | 35.8 µM (inactive) | 12.6 µM (inactive) | 29 µM (inactive) | > 100 µM (inactive) | 86.9 µM (inactive) | > 100 µM (inactive) | 75.9 µM (inactive) | 43.4 µM (inactive) |  | 18.5 µM (inactive) | 29.2 µM (inactive) | 78.9 µM (inactive) | 47 µM (inactive)
7 | Cn1cc(NC(=O)c2cc(NC(=O)Nc3cc(C(=O)Nc4cc(C(=O)NCCC(=N)N)n(C)c4)n(C)c3)cn2C)cc1C(=O)NCCC(=N)N | 60.7 µM (inactive) | 25.2 µM (inactive) | 22.4 µM (inactive) | 22 µM (inactive) | 37.2 µM (inactive) | 86.7 µM (inactive) | > 100 µM (inactive) | 17.4 µM (inactive) | 51.8 µM (inactive) | 30.5 µM (inactive) |  | 20.4 µM (inactive) | 26.6 µM (inactive) | 16.9 µM (inactive) | 33.9 µM (inactive) | 42.2 µM (inactive) | 44.2 µM (inactive) | 38.7 µM (inactive) | 
8 | Nc1nc2c(N)cc(C(F)(F)F)cc2nc1-c1ccccc1 | 1.17 µM (inactive) | > 100 µM (inactive) | > 100 µM (inactive) | > 100 µM (inactive) | > 100 µM (inactive) | > 100 µM (inactive) | 38.4 µM (inactive) | > 100 µM (inactive) | > 100 µM (inactive) | > 100 µM (inactive) | > 100 µM (inactive) | > 100 µM (inactive) | > 100 µM (inactive) | > 100 µM (inactive) | > 100 µM (inactive) | > 100 µM (inactive) | > 100 µM (inactive) | > 100 µM (inactive) | 
9 | C=C1CC(C/C=C(\C)CC2CC(=C)C(=O)O2)OC1=O (configuration not stated) | > 100 µM (inactive) | > 100 µM (inactive) | > 100 µM (inactive) | > 100 µM (inactive) | > 100 µM (inactive) | > 100 µM (inactive) | > 100 µM (inactive) | > 100 µM (inactive) | > 100 µM (inactive) | > 100 µM (inactive) |  | > 100 µM (inactive) | > 100 µM (inactive) | > 100 µM (inactive) | > 100 µM (inactive) | > 100 µM (inactive) | > 100 µM (inactive) | > 100 µM (inactive) | 
10 | COc1cc2c(/C=C3/C(=O)Nc4ccc(O)cc43)c(Cl)n(Cc3ccccc3)c2cc1C | 0.306 µM (active) | 0.628 µM (active) | 0.352 µM (active) | 0.873 µM (active) | 0.421 µM (active) | 6.17 µM (inactive) | 1.13 µM (inactive) | 0.266 µM (active) | 0.583 µM (active) | 0.408 µM (active) | 0.948 µM (active) | 0.6 µM (active) | 0.69 µM (active) | 2.37 µM (inactive) | 0.323 µM (active) | 12.8 µM (inactive) | 0.356 µM (active) | 4.2 µM (inactive) | 
11 | Cc1ccccc1NC(=O)Cc1csc(N/N=C2\NC(=O)/C(=C/c3cccc([N+](=O)[O-])c3)S2)n1 | 17.8 µM (inactive) | 15.6 µM (inactive) |  |  | 36.7 µM (inactive) | 36.6 µM (inactive) | 23.9 µM (inactive) | 23.9 µM (inactive) |  | 19.7 µM (inactive) | 17.8 µM (inactive) | 17 µM (inactive) | 21.5 µM (inactive) |  | 18.1 µM (inactive) | 15.8 µM (inactive) |  | 20.6 µM (inactive) | 30.5 µM (inactive)
12 | CCc1cccc(C(C)C)c1NC(=O)C(=O)C1C(=O)NC(=O)NC1=O | > 100 µM (inactive) | > 100 µM (inactive) | > 100 µM (inactive) | > 100 µM (inactive) | > 100 µM (inactive) | > 100 µM (inactive) |  | > 100 µM (inactive) | > 100 µM (inactive) | > 100 µM (inactive) | > 100 µM (inactive) | > 100 µM (inactive) | > 100 µM (inactive) | > 100 µM (inactive) | > 100 µM (inactive) | > 100 µM (inactive) | > 100 µM (inactive) | > 100 µM (inactive) | 
13 | Cc1ccc(-n2c(=S)[nH]c3ccc(Br)cc3c2=O)cc1 | > 100 µM (inactive) | > 100 µM (inactive) | > 100 µM (inactive) |  | > 100 µM (inactive) | > 100 µM (inactive) | > 100 µM (inactive) |  | > 100 µM (inactive) |  | > 100 µM (inactive) |  | > 100 µM (inactive) |  | > 100 µM (inactive) | > 100 µM (inactive) | > 100 µM (inactive) | > 100 µM (inactive) | 
14 | O=C1NC(=O)[C@@H](OCC2CCCCC2)[C@@H]2OCC3OC(C(O)C3O)C12 (some centres not stated) | > 100 µM (inactive) | > 100 µM (inactive) | > 100 µM (inactive) | > 100 µM (inactive) | > 100 µM (inactive) | > 100 µM (inactive) | > 100 µM (inactive) | > 100 µM (inactive) |  | > 100 µM (inactive) | > 100 µM (inactive) | > 100 µM (inactive) |  | > 100 µM (inactive) | > 100 µM (inactive) |  | > 100 µM (inactive) | > 100 µM (inactive) | > 100 µM (inactive)
15 | CC1CC(=O)C(C(O)CC2CC(=O)N(c3ccccc3)C(=O)C2)C(C)C1 (configuration not stated) | > 100 µM (inactive) | > 100 µM (inactive) | > 100 µM (inactive) | > 100 µM (inactive) | > 100 µM (inactive) | > 100 µM (inactive) | > 100 µM (inactive) |  | > 100 µM (inactive) | > 100 µM (inactive) | > 100 µM (inactive) | > 100 µM (inactive) | > 100 µM (inactive) | > 100 µM (inactive) | > 100 µM (inactive) | > 100 µM (inactive) | > 100 µM (inactive) | > 100 µM (inactive) | 
16 | CNC(=O)OCc1c(COC(=O)NC)c(-c2ccc(Cl)c(Cl)c2)n2c1SCC2 | 7.29 µM (inactive) | 3.61 µM (inactive) | 3.31 µM (inactive) | 13.4 µM (inactive) | 11.5 µM (inactive) | 13 µM (inactive) | 12 µM (inactive) | 13.5 µM (inactive) | 11 µM (inactive) | 4.22 µM (inactive) | 0.387 µM (active) | 18.7 µM (inactive) | 7.85 µM (inactive) | 5.74 µM (inactive) | 13.6 µM (inactive) | 10.6 µM (inactive) | 2.33 µM (inactive) |  | 18.5 µM (inactive)
